pIC50: −log10 of the molar value.
Assays:
TNF-α = experiment: IC50 hWB (TNF-α release assay); type: cell-based; details: Homo sapiens
Description: Blood was obtained from healthy volunteers by venipuncture using sodium heparin as an anti-coagulant. Peripheral blood mononuclear cells (PBMCs) were isolated using Lymphocyte Separation Medium (ICN) according to manufacturers specifications. Isolated PBMCs were washed 3 times with FIBSS and diluted to a density of 2×10^6 cells/mL in RPMI+5% autologous human serum. 50 μL of the serial dilutions of inhibitor were added to wells of a 96-well tissue culture plate followed by addition of 100 μL of PBMCs and then 50 μL of RPMI complete medium containing 400 ng/mL LPS. A control well of cells without compound but with LPS (maximal stimulation control) and one without compound and without LPS (background control) were included in each titration. The cells were incubated for 16 hours in a humidified incubator at 37° C., 5% CO2. Supernatants were then harvested and TNF-α levels were quantified by immunoassay using commercial reagents (R&D, Inc).

p38α = molecular target: T1, p38α (Homo sapiens, UniProt Q16539); experiment: p38 kinase assay, p38-α with peptide substrate (Caliper LabChip); type: biochemical
T1 construct: purchased Millipore
Description: Alternatively, p38 kinase assays were performed in a reaction volume of 70 μL in a 384-well plate, at 30° for […] under the following conditions: 50 mM Hepes, pH 7.4, 10 mM MgCl2, 1 mg/ml FA Free BSA, 1 mM DTT, 10 μM ATP, 10 μM p38 peptide [Caliper Life Sciences FL-Peptide 8 (5-FAM-IPTSPITTTYFFFKKK-COOH)] and 5.7 nM p38-α (Millipore), or 14.3 nM unactivated MAPKAP kinase-2, 0.18 nM p38-α (Millipore) and 2 uM RSK peptide [Caliper Life Sciences FL-Peptide 11 (5-FAM-KKLNRTLSVA-COOH)]. Serial dilutions of compounds were added to each reaction in 700 nL DMSO. 700 nL of DMSO was added to the control wells of the reaction plate as the no inhibitor control for each inhibitor titration. The reaction was terminated by the addition of 15 μL of a 100 mM EDTA. Product formation was analyzed using the Caliper LabChip 3000. The Separation buffer contained 100 mM HEPES pH 7.5, 0.015% Brij-35, 2.5% Coating Reagent #3 (Caliper Life Sciences) and 10 mM EDTA. Calculation of the substrate product ratios are performed using the HTS Well Analyzer software provided by Caliper Life Sciences and the percent inhibition at each compound concentration is determined.

T1 sequence (Q16539 whole entry): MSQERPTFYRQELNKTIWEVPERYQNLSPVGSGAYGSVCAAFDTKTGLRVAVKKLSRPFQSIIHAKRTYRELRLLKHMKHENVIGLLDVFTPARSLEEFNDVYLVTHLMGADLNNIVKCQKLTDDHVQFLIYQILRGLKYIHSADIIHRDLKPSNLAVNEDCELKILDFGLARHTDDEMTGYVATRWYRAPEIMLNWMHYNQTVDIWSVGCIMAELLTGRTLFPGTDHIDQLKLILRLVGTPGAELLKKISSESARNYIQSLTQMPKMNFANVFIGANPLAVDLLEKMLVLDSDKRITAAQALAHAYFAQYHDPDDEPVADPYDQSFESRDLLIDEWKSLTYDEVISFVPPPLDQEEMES

pIC50 (TNF-α) | pIC50 (p38α) | Structure (SMILES)
6.44 | 7.51 | O=C(c1c(F)cc(F)cc1F)c1c[nH]c2c(=O)n(Cc3nc4cc(C(F)(F)F)cnc4[nH]3)ccc12 [Example 19, 3-(2,4,6-trifluorobenzoyl)-6-{[6-(trifluoromethyl)-3H-imidazo[4,5-b]pyridin-2-yl]methyl}-1,6-dihydro-7H-pyrrolo[2,3-c]pyridin-7-one]
6.79 | 7.74 | O=C(c1ccc(F)cc1F)c1c[nH]c2c(=O)n(Cc3cn4ccccc4n3)ccc12 [Example 20, 3-(2,4-difluorobenzoyl)-6-(imidazo[1,2-a]pyridin-2-ylmethyl)-1,6-dihydro-7H-pyrrolo[2,3-c]pyridin-7-one]
5.69 | 7.42 | O=C(c1c(F)cccc1F)c1c[nH]c2c(=O)n(Cc3nc4ncc(C(F)(F)F)cc4[nH]3)ccc12 [Example 21, 3-(2,6-difluorobenzoyl)-6-{[6-(trifluoromethyl)-3H-imidazo[4,5-b]pyridin-2-yl]methyl}-1,6-dihydro-7H-pyrrolo[2,3-c]pyridin-7-one]
7.68 | 8.42 | CN(C)C(=O)c1ccn2cc(Cn3ccc4c(C(=O)c5c(F)cc(F)cc5F)c[nH]c4c3=O)nc2c1 [Example 24, N,N-dimethyl-2-{[7-oxo-3-(2,4,6-trifluorobenzoyl)-1,7-dihydro-6H-pyrrolo[2,3-c]pyridin-6-yl]methyl}imidazo[1,2-a]pyridine-7-carboxamide]
6.30 | 6.97 | O=c1c2[nH]cc(Cc3c(F)cc(F)cc3F)c2ccn1Cc1nc2ncccc2[nH]1 [Example 29, 6-(1H-imidazo[4,5-b]pyridin-2-ylmethyl)-3-(2,4,6-trifluorobenzyl)-1,6-dihydro-7H-pyrrolo[2,3-c]pyridin-7-one]

— US20110105430A1, “PYRROLO [2,3-C] PYRIDINE DERIVATIVES AS P38 KINEASE INHIBITING AGENTS” (priority 2008, published 2011)
